Test [1] deals with ABA-responsive genes ZmLEA, Zm.12309.1.S and ZmCOR410. The test is described as follows: qRT-PCR of ABA-responsive genes in maize. In kind it is in vivo, Maize (cv. Gold rush). Conditions: maize 2-week-old seedlings, roots dipped in 100 μM overnight, aerial shoot tissues. How it is done: The effects of (-)-Abz-[…] were also determined relative to stomatal apertures. Arabidopsis grown in soil pots underwent moderate drought stress under the optimal growth conditions of 22 °C and 60% relative humidity. Under these growth conditions, the leaf surface temperature of the mock-treated controls was 19.5 °C, which was lower than the surrounding atmospheric temperature because of transpirational water loss (Fig. 6a,b)[30]. […] Finally, we examined the effects of (-)-Abz-[…] on drought tolerance under more practical conditions. Three-week-old Arabidopsis were sprayed with an aqueous solution containing 50 μM (-)-Abz-[…]. Water was not supplied for 12 days, and then the plants were rehydrated. […] We also tested the effects of (-)-Abz-[…] on a monocot crop, maize, to evaluate whether (-)-Abz-[…] affected stomatal movement and enhanced ABA response across plant species. […] Thus, the effects of (-)-Abz-[…] were not restricted to the model plant Arabidopsis. Figure 7 Effects of (-)-Abz-[…] on maize. (a) Thermal images of the leaf surface temperatures of (-)-Abz-[…]-treated maize plants. (b) Leaf surface temperatures of (-)-Abz-[…]-treated maize plants. The stomatal conductance (c) and transpiration rate (d) in (-)-Abz-[…]-treated maize at different light intensities. […] Values are means with s.d. (n = 4 for leaf surface temperature, n = 3 for stomatal conductance and transpiration rate). […]
Background: Quantitative PCR measures a nucleic acid by following its amplification.

For another test, the system named is rice seedling growth. As to the kind of experiment: Rice seedling elongation assay. Conditions: Fig. S5. The format is in vivo, Oryza sativa L. cv. Nipponbare. As for the experimental part:
The effects of (−)-Abz-T compounds were also tested on the early growth of rice seedlings to investigate whether the plant growth-retardant effect derived from UNI declined. […] This was the same trend observed for (−)-Abz-E2B[26]. […] Thus, the growth-retardant effects of (−)-Abz-T compounds may arise from an increase in the endogenous ABA level due to the CYP707A inhibition, although we cannot exclude the possibility that Abz-T compounds may inhibit off-target enzymes other than CYP707A and CYP701A.
Figure 4 Effects of (−)-Abz-T compounds on rice seedling growth compared with the effects of UNI and (−)-Abz-E2B. Seedlings grown on test media containing indicated concentrations of azole inhibitors for 7 d. Scale bars represent 10 mm. Compound 6 is also referred to as Abz-E3M.
For the rice seedling elongation assay, seven seeds (Oryza sativa L. cv. Nipponbare) were sterilised with reagent-grade EtOH for 5 min and washed with running tap water. They were then soaked in distilled water and incubated under continuous illumination at 25 °C for 3 d to germinate. The germinated seeds were then soaked in 2 mL of a test medium in a glass tube and grown under continuous illumination at 25 °C. When the seedlings were 7 d old, the length of the second leaf sheath was measured. All of the assays were conducted at least three times.

We go through one substance from paper PMC5107945, “Abscinazole-E3M, a practical inhibitor of abscisic acid 8′-hydroxylase for improving drought tolerance” (Scientific Reports, 2016).

Turning to abscinazole-E3M [(−)-6], the “Expression of ABA-responsive genes ZmLEA, Zm.12309.1.S and ZmCOR410” value in test [1] was “induced the expression of ABA-responsive genes”. Moreover, the “Effect on rice seedling growth, co-treatment with ABA” value in the test with rice seedling growth (10 μM compound + 1 μM ABA) is reported as “inhibited rice seedling growth”. In addition, in the test with rice seedling growth (10 μM, no ABA), the “Effect on rice seedling growth, compound alone” value was “did not”.
